Test results published in patent US20220155322A1, “USE OF NATRIURETIC PEPTIDES TO ASSESS AND TREAT ACUTE KIDNEY INJURY” (Mayo Foundation for Medical Education and Research, priority 2019, published 2022).
Positions of bridges follow the written chain, without caps; N, C: chain ends. Residues, ends and D or L forms follow the SMILES beside them.

Legend:
[1] = test system: ischemic AKI model in normal mongrel canines; test: CNP levels (RIA) and renal NPPC mRNA (RT-PCR) in canine AKI; type: in vivo
[2] = test system: ischemic AKI model in normal mongrel canines; test: Ischemic AKI in canines: hormonal and renal function; type: in vivo, canine
[3] = test system: human primary aortic vascular smooth muscle cells (HASMC); test: Intracellular calcium under ANGII stimulation (Fura-2); type: cell-based
Method: Measurements of Intracellular Calcium in Vascular Smooth Muscle Cells: HASMC (ScienCell Research Laboratories; Carlsbad, Calif.) were cultured and maintained as instructed by the manufacturer. Cells at passage 4 or 5 were used for experiments. Calcium imaging was performed as described elsewhere (Chai et al., Cardiovasc Res, 100:151-159, 2013). Briefly, cells were seeded on a 25 mm round cover glass (Fisher Scientific; Pittsburgh, Pa.) at a density of 5×10^4 cells per slide. The slides had been pretreated with 0.5 N NaOH for 8 hours, rinsed with water, and sterilized before use. After overnight culturing, the slides with cells were assembled in a MS-02 Chamber (ALA Scientific Instrument; Farmingdale, N.Y.) and loaded with 3 μM fura-2 AM (Invitrogen; Carlsbad, Calif.) for 30 minutes in a 37° C. incubator. The chamber was then placed on the stage of an inverted Olympus IX71 microscope (Olympus America Inc.; Waltham, Mass.). The cells were maintained in 1 mL HASMC medium and treated with or without ANP, BNP, or CRRL269 at concentration of 10^−9 or 10^−7 M for 5 minutes before perfused with 5 mL medium containing ANGII (10^−8 or 10^−7 M). Intracellular Ca2^+ fluorescence signals were measured as a ratio of fluorescence intensities at 510 nm from excitations of 340/380 nm, using a Hamamatsu ORCA-R2 CCD camera with a Sutter LB-LS/17 light source. Baseline fluorescence was recorded after 5 minutes of treatment, and fluorescence images were acquired continuously during the ANGII perfusion. Background fluorescence was subtracted and the calcium signal (F) was normalized to baseline fluorescence (FO) and expressed as a ratio (F/FO) using MetaFluor software (Olympus America Inc.).

[4] = 16.3 pmol/kg/min infusion for 2 hours after ACC, vs vehicle
[5] = 16.3 pmol/kg/min, compared to vehicle
[6] = postischemia phases, 16.3 pmol/kg/min, vs vehicle

CC[C@H](C)[C@@H]1NC(=O)[C@H](CCCNC(=N)N)NC(=O)[C@H](CC(=O)O)NC(=O)[C@H](CCSC)NC(=O)[C@H](CCCCN)NC(=O)[C@H](CCCNC(=N)N)NC(=O)CNC(=O)[C@H](Cc2ccccc2)NC(=O)[C@@H](NC(=O)[C@H](CO)NC(=O)[C@H](CO)NC(=O)[C@H](CCCNC(=N)N)NC(=O)[C@H](CCCNC(=N)N)NC(=O)[C@H](CC(C)C)NC(=O)[C@H](CO)NC(=O)[C@H](CCCNC(=N)N)NC(=O)[C@@H]2CCCN2C(=O)[C@H](C)NC(=O)[C@@H](N)[C@@H](C)O)CSSC[C@@H](C(=O)N[C@@H](CC(N)=O)C(=O)N[C@@H](CO)C(=O)N[C@@H](Cc2ccccc2)C(=O)N[C@@H](CCCNC(=N)N)C(=O)N[C@@H](Cc2ccc(O)cc2)C(=O)O)NC(=O)CNC(=O)[C@H](CC(C)C)NC(=O)CNC(=O)[C@H](CO)NC(=O)[C@H](CO)NC(=O)[C@H](CO)NC(=O)[C@H](CO)NC1=O [CRRL269] (H-TAPRSLRRSSCFGRKMDRISSSSGLGCNSFRY-OH; disulfide 11-27)
cortical NPPC gene expression levels (RT-PCR) ([1]; AKI canine renal cortex, normalized to GAPDH, vs vehicle): elevated
urinary CNP levels ([1]; AKI canines, 16.3 pmol/kg/min infusion, compared to vehicle): increased
plasma cGMP levels [2, 4]: increased
urinary cGMP levels [2, 4]: increased
renal parenchyma cGMP levels ([2]; 16.3 pmol/kg/min infusion for 2 hours, ex vivo cortex and medulla): increased
urinary sodium excretion (UNaV), natriuresis [2, 5]: significantly induced
urine output (UV), diuresis [2, 5]: significantly induced
plasma (circulating) ANGII levels ([2]; post-ischemia CL1 to CL4, 16.3 pmol/kg/min, vs vehicle): significantly reduced
glomerular filtration rate (GFR) [2, 6]: maintained
renal blood flow (RBF) [2, 6]: maintained
Ca2^+ suppression relative to ANP and BNP ([3]; HASMC, pretreatment at 10^−9 or 10^−7 M, ANGII stimulation): less Ca2^+ suppression than ANP and BNP
Ca2^+ enhancement by ANGII in HASMC ([3]; pretreatment at 10^−9 or 10^−7 M for 5 minutes, ANGII 10^−8 or 10^−7 M): suppressed
